4 compounds from ChEMBL document CHEMBL1151079, “On the mechanism of activation of designed enediynes with selective cytotoxicity” (Bioorg Med Chem Lett, 1992) can be followed below.

In one test the test system is P388. Description: Compound tested for cytotoxic Activity against P-388 cell line from mouse leukemia. The format is functional, cell-based.
Another test relates to CAPAN-1. The test can be described thus: Compound tested for cytotoxic Activity against Capan-l cell line from pancreatic carcinoma. The format is functional, cell-based. To be noted: Homo sapiens.
Test [1] relates to CHO. Description: (§1) Compound tested for cytotoxic Activity against CHO cell line. The format is functional, cell-based. The following applies: Cricetulus griseus.
In the next test the test system is SK-MEL-28. Description: Compound tested for cytotoxic Activity against SK-Mel-28 cell line from melanoma. The format is functional, cell-based. To be noted: Homo sapiens.
The test system of the next test is OVCAR-3. The test can be described thus: Compound tested for cytotoxic Activity against Ovcar-3 cell line from ovarian carcinoma. The format is functional, cell-based. To be noted: Homo sapiens.
The next test concerns HT-29. Description: Compound tested for cytotoxic Activity against HT-29 cell line from colon carcinoma. The following applies: Homo sapiens. The format is functional, cell-based.
The subject of another test is HL-60. Description: Compound tested for cytotoxic Activity against HL-60 cell line from promyelocytic leukemia. The format is functional, cell-based. To be noted: Homo sapiens.
Test [2] concerns NHDF. Description: (§2) Compound tested for cytotoxic Activity against NHDF cell line. The format is functional, cell-based. The following applies: Homo sapiens.
In a further test the test system is MCF7. The test can be described thus: Compound tested for cytotoxic Activity against MCF-7 cell line from breast carcinoma. The format is functional, cell-based. The following applies: Homo sapiens.
The test system of another test is MOLT-4. The test can be described thus: Compound tested for cytotoxic Activity against Molt-4 cell line from T cell leukemia. The format is functional, cell-based. The following applies: Homo sapiens.
The test system of another test is UCLA P-3. Description: Compound tested for cytotoxic Activity against UCLA-P3 cell line from lung carcinoma. The format is functional, cell-based. The following applies: Homo sapiens.
Test [3] concerns H322. Description: Compound tested for cytotoxic Activity against H-322 cell line from lung carcinoma. To be noted: Homo sapiens, NCI-H322. The format is functional, cell-based.
In test [4] the test system is H322. Description: Compound tested for cytotoxic Activity against H-322 cell line from lung carcinoma; Non toxic. The format is functional, cell-based, Homo sapiens.
The subject of test [5] is CHO. Described as §1. The format is cell-based. The following applies: Cricetulus griseus.
Test [6] relates to NHDF. The description is as §2. The format is cell-based. To be noted: Homo sapiens.
Test [7] has as its system CHO. The test can be described thus: Compound tested for cytotoxic Activity against CHO cell line; Not toxic. The format is functional, cell-based, Cricetulus griseus.
The subject of test [8] is NHDF. The test can be described thus: Compound tested for cytotoxic Activity against NHDF cell line; Not toxic. The format is functional, cell-based, Homo sapiens.

Each structure is given as a SMILES string.

`C[C@@H](COC(=O)N1c2ccccc2[C@@]23O[C@]24CCC[C@@H]3C#C/C=C\C#C[C@H]14)S(=O)(=O)c1ccccc1`: the concentration for half-maximal inhibition (IC50) is 1.6 µM with P388; 3.1 µM in the test on CAPAN-1; 1000 µM with CHO [1]; 50 µM with SK-MEL-28; 3.1 µM in the test with OVCAR-3; 0.78 µM in the test with HT-29. The IC50 in the test on HL-60 stood at 0.78 µM; in the test on NHDF [2] it was 1000 µM; in the test on MCF7 it was 25 µM; in the test with MOLT-4, 0.01 µM; with UCLA P-3, 3.1 µM; with H322 [3], 13 µM.
Take `C[C@H](COC(=O)N1c2ccccc2[C@@]23O[C@]24CCC[C@@H]3C#C/C=C\C#C[C@H]14)S(=O)(=O)c1ccccc1`: the concentration for half-maximal inhibition (IC50) in the test with P388 was 1.6 µM; in the test on CAPAN-1 it was 6.3 µM; in the test with CHO [1], more than 1000 µM; in the test with SK-MEL-28 it was more than 1000 µM; in the test on OVCAR-3, 13 µM; in the test on H322 [4] it was “Non-toxic”. In addition, the concentration for half-maximal inhibition (IC50) with HT-29 is 13 µM; with HL-60 it was 1.6 µM; with NHDF [2] it was more than 1000 µM; in the test on MCF7 it was more than 1000 µM; in the test with MOLT-4, 10 µM; with UCLA P-3, 13 µM.
Turning to `O=C(OCCS(=O)(=O)c1ccccc1)N1c2ccccc2[C@@]23O[C@]24CCC[C@@H]3C#C/C=C\C#C[C@H]14`, the half-inhibitory concentration (IC50) in the test on P388 was 0.098 µM; with CAPAN-1, 0.078 µM; in the test with SK-MEL-28, 63 µM; in the test on OVCAR-3, 0.78 µM; in the test on CHO [5], 6.3 µM; in the test with HT-29 it was 0.39 µM. Moreover, the IC50 in the test on HL-60 worked out at 0.098 µM; in the test on MCF7, 3.1 µM; in the test on MOLT-4, 1e-05 µM; in the test with UCLA P-3 it was 0.78 µM; with NHDF [6], 6.3 µM; in the test on H322 [3], 3.1 µM.
For `CC(C)(COC(=O)N1c2ccccc2[C@@]23O[C@]24CCC[C@@H]3C#C/C=C\C#C[C@H]14)S(=O)(=O)c1ccccc1`, the half-inhibitory concentration (IC50) in the test with P388 was 13 µM; in the test on CAPAN-1, 50 µM; in the test with SK-MEL-28, less than 1000 µM; in the test with OVCAR-3 it was 50 µM; in the test on HT-29 it was 25 µM; with HL-60, 25 µM. Besides, the concentration for half-maximal inhibition (IC50) with MCF7 is 25 µM; in the test on CHO [7] it was “Non-toxic”; in the test on NHDF [8] it was “Non-toxic”; in the test on MOLT-4 it was 1000 µM; in the test with UCLA P-3 it was 50 µM; in the test with H322 [3], 50 µM.

Broadly, the IC50 is the point on the concentration scale where inhibition reaches its midpoint. Read a low IC50 as greater potency in that assay.
